{
  "source": "patent EP4813989A1",
  "about": "“CRYSTAL, PHARMACEUTICAL COMPOSITION, PREPARATION METHOD THEREFOR, AND USE THEREOF” (TYK Medicines, Inc., priority 2023, dated 2025)",
  "experiment": "Pharmacokinetic test in SD rats",
  "type": "in vivo",
  "conditions": "for AUC(0-inf) / AUC(0-t) / Cmax / MRT last / Tmax: rat, plasma, po; for AUC(0-inf) / AUC(0-t) / Cmax / MRT last / Tmax / Plasma concentration: 10 mg/kg; for Plasma concentration: 10 mg/kg p.o., listed as compound represented by formula I (amorphous form)",
  "description": "Experimental animals: healthy adult SD rats, male, 6 in total, divided into two groups, with 3 rats per group, aged 6-8 weeks; and body weight approximately 200-300 g. The rats were fed in rat cages, and fasted (for at least 10 hours) with free access to water one day before the experiment. On the day of experiment, the rats were weighed and marked at the tail respectively. Blank blood samples were collected respectively before drug administration. The blood samples were collected via the tail vein. Drug administration method: intragastric gavage (p.o.): intragastric gavage with drug suspension; preparation of drug suspension: approximately 10 mg of test sample was accurately weighed, dissolved in 5% DMSO (calculated proportion), and vortexed with 10% solutol HS-15 and 85% saline to obtain a suspension with a concentration of 1.0 mg/mL; and the suspension was freshly prepared before use.\nSample collection: the rats were administered a single oral dose of 10mg/kg via intragastric gavage (p.o.). Timing was started immediately after the administration was completed, and blood samples were collected at 0.5, 1, 2, 4, 6, 8, 12 and 24 hours after administration. A volume of 0.1mL of whole blood was collected into EDTA-Na2 anticoagulant tubes, mixed by inverting 3-4 times, centrifuged at 10000 g for 5 minutes at 4°C to separate the plasma, and then the plasma was stored at -80 °C until testing. The blood samples were collected via the tail vein.\nSample preparation: 1) the samples were thawed, and 15 µL of unknown plasma samples before or after administration, standard series solutions, and single blank and double blank samples were respectively transferred into 1.5 mL centrifuge tubes. 2) 15 µL of protein precipitant (methanol) and 400 µL of internal standard solution (verapamil in methanol, approximately 10 ng/mL) were added to each sample sequentially, vortexed for 2 minutes, and then centrifuged at 4°C and 12000 rpm for 10 minutes. 3) The supernatant was collected for LC-MS/MS detection.\nAnalytical conditions: liquid chromatography conditions: liquid chromatography system: Shimadzu Nexera X2; chromatographic column: Agilent ZORBAX XDB-C18 3.5 (2.1 × 50 mm); column temperature: 35°C; mobile phase: A-5% acetonitrile (0.1% formic acid in water), B-95% acetonitrile (0.1% formic acid in water); injection volume: 3 µL; and\nflow rate: 0.5 mL/min. Gradient elution was employed, and an elution program can be seen in the table below.\nMass spectrometry conditions: mass spectrometric analysis was carried out using an electrospray ionization (ESI) source in a positive ion mode with multiple reaction monitoring (MRM). The mass spectrometer ion source parameters and compound detection parameters can be seen in the table below.\nPK parameter processing: pharmacokinetic (PK) parameters were calculated according to a plasma concentration from individual plasma concentration and corresponding sampling time data using Phoenix WinNonlin software with a non-compartmental model. (1) The PK parameters used for pharmacokinetic evaluation included: Cmax, AUC0-t, AUC0-∞, Tmax and t1/2.\n(2) The parameters used for bioequivalence evaluation: Cmax, AUC0-t and AUC0-∞ were used for the bioequivalence evaluation.\nCmax: maximum plasma concentration measured within specified period, presented as measured value.\nTmax: time measured to reach maximum plasma concentration, presented as measured value. If the maximum value occurred at more than one time point, Tmax was defined as the first time point at which this value was observed.\nAUC0-t: area under plasma concentration-time curve from 0 to last time point t.\nAUC0-∞: area under plasma concentration-time curve from 0 to infinity. Ct was the last measured concentration, and λz was the terminal elimination rate constant. AUC0−∞ = AUC0−t + (Ct)/(λz)AUC0−∞ = AUC0−t + (Ct)/(λz) [formula]\nt1/2: elimination or terminal half-life, estimated by ln2/λz.",
  "key": {"[1]": {"conditions": "Mean of rats No. 1-3, intragastric gavage at 10 mg/kg"}, "[2]": {"conditions": "rat No. 1, intragastric gavage at 10 mg/kg"}, "[3]": {"conditions": "rat No. 2, intragastric gavage at 10 mg/kg"}, "[4]": {"conditions": "rat No. 3, intragastric gavage at 10 mg/kg"}, "[5]": {"conditions": "rats, intragastric gavage 10 mg/kg, Mean"}},
  "data": [
    {"smiles": "C[C@@H](Nc1ccn2ncc(C3=NOC(C)(C)N3)c2n1)c1cc(F)cc(F)c1F", "note": "[amorphous form]", "values": [
      {"measurement": "HL_", "setting": "[1]", "result": 8.72, "unit": "h"},
      {"measurement": "HL_", "setting": "[2]", "result": 6.05, "unit": "h"},
      {"measurement": "HL_", "setting": "[3]", "result": 17.2, "unit": "h"},
      {"measurement": "HL_", "setting": "[4]", "result": 2.93, "unit": "h"},
      {"measurement": "AUC(0-inf)", "setting": "[1]", "result": 1560, "unit": "ng·h/mL"},
      {"measurement": "AUC(0-t)", "setting": "[1]", "result": 1080, "unit": "ng·h/mL"},
      {"measurement": "Cmax", "setting": "[1]", "result": 151, "unit": "ng/mL"},
      {"measurement": "MRT last", "setting": "[1]", "result": 7.55, "unit": "h"},
      {"measurement": "Tmax", "setting": "[1]", "result": 6, "unit": "h"},
      {"measurement": "AUC(0-inf)", "setting": "[2]", "result": 982, "unit": "ng·h/mL"},
      {"measurement": "AUC(0-t)", "setting": "[2]", "result": 894, "unit": "ng·h/mL"},
      {"measurement": "Cmax", "setting": "[2]", "result": 87.1, "unit": "ng/mL"},
      {"measurement": "MRT last", "setting": "[2]", "result": 7.84, "unit": "h"},
      {"measurement": "Tmax", "setting": "[2]", "result": 8, "unit": "h"},
      {"measurement": "AUC(0-inf)", "setting": "[3]", "result": 3200, "unit": "ng·h/mL"},
      {"measurement": "AUC(0-t)", "setting": "[3]", "result": 1910, "unit": "ng·h/mL"},
      {"measurement": "Cmax", "setting": "[3]", "result": 307, "unit": "ng/mL"},
      {"measurement": "MRT last", "setting": "[3]", "result": 9.26, "unit": "h"},
      {"measurement": "Tmax", "setting": "[3]", "result": 4, "unit": "h"},
      {"measurement": "AUC(0-inf)", "setting": "[4]", "result": 487, "unit": "ng·h/mL"},
      {"measurement": "AUC(0-t)", "setting": "[4]", "result": 428, "unit": "ng·h/mL"},
      {"measurement": "Cmax", "setting": "[4]", "result": 58.3, "unit": "ng/mL"},
      {"measurement": "MRT last", "setting": "[4]", "result": 5.56, "unit": "h"},
      {"measurement": "Tmax", "setting": "[4]", "result": 6, "unit": "h"},
      {"measurement": "AUC(0-t)", "setting": "[5]", "result": 1080, "unit": "ng·h/mL"},
      {"measurement": "Cmax", "setting": "[5]", "result": 151, "unit": "ng/mL"},
      {"measurement": "Plasma concentration", "setting": "rats, 0.5 h, Mean", "result": 41.0, "unit": "ng/mL"},
      {"measurement": "Plasma concentration", "setting": "rats, 0.5 h, No. 1", "result": 44.5, "unit": "ng/mL"},
      {"measurement": "Plasma concentration", "setting": "rats, 0.5 h, No. 2", "result": 49.0, "unit": "ng/mL"},
      {"measurement": "Plasma concentration", "setting": "rats, 0.5 h, No. 3", "result": 29.4, "unit": "ng/mL"},
      {"measurement": "Plasma concentration", "setting": "rats, 1 h, Mean", "result": 22.5, "unit": "ng/mL"},
      {"measurement": "Plasma concentration", "setting": "rats, 1 h, No. 1", "result": 20.8, "unit": "ng/mL"},
      {"measurement": "Plasma concentration", "setting": "rats, 1 h, No. 2", "result": 21.5, "unit": "ng/mL"},
      {"measurement": "Plasma concentration", "setting": "rats, 1 h, No. 3", "result": 25.3, "unit": "ng/mL"},
      {"measurement": "Plasma concentration", "setting": "rats, 2 h, Mean", "result": 56.2, "unit": "ng/mL"},
      {"measurement": "Plasma concentration", "setting": "rats, 2 h, No. 1", "result": 64.1, "unit": "ng/mL"},
      {"measurement": "Plasma concentration", "setting": "rats, 2 h, No. 2", "result": 71.2, "unit": "ng/mL"},
      {"measurement": "Plasma concentration", "setting": "rats, 2 h, No. 3", "result": 33.2, "unit": "ng/mL"},
      {"measurement": "Plasma concentration", "setting": "rats, 4 h, Mean", "result": 142, "unit": "ng/mL"},
      {"measurement": "Plasma concentration", "setting": "rats, 4 h, No. 1", "result": 71.7, "unit": "ng/mL"},
      {"measurement": "Plasma concentration", "setting": "rats, 4 h, No. 3", "result": 47.9, "unit": "ng/mL"},
      {"measurement": "Plasma concentration", "setting": "rats, 6 h, Mean", "result": 86.2, "unit": "ng/mL"},
      {"measurement": "Plasma concentration", "setting": "rats, 6 h, No. 1", "result": 72.4, "unit": "ng/mL"},
      {"measurement": "Plasma concentration", "setting": "rats, 6 h, No. 2", "result": 128, "unit": "ng/mL"},
      {"measurement": "Plasma concentration", "setting": "rats, 6 h, No. 3", "result": 58.3, "unit": "ng/mL"},
      {"measurement": "Plasma concentration", "setting": "rats, 8 h, Mean", "result": 68.7, "unit": "ng/mL"},
      {"measurement": "Plasma concentration", "setting": "rats, 8 h, No. 1", "result": 87.1, "unit": "ng/mL"},
      {"measurement": "Plasma concentration", "setting": "rats, 8 h, No. 2", "result": 84.3, "unit": "ng/mL"},
      {"measurement": "Plasma concentration", "setting": "rats, 8 h, No. 3", "result": 34.7, "unit": "ng/mL"},
      {"measurement": "Plasma concentration", "setting": "rats, 12 h, Mean", "result": 24.4, "unit": "ng/mL"},
      {"measurement": "Plasma concentration", "setting": "rats, 12 h, No. 1", "result": 18.6, "unit": "ng/mL"},
      {"measurement": "Plasma concentration", "setting": "rats, 12 h, No. 2", "result": 40.6, "unit": "ng/mL"},
      {"measurement": "Plasma concentration", "setting": "rats, 12 h, No. 3", "result": 14.0, "unit": "ng/mL"},
      {"measurement": "Plasma concentration", "setting": "rats, 24 h, Mean", "result": 31.2, "unit": "ng/mL"},
      {"measurement": "Plasma concentration", "setting": "rats, 24 h, No. 1", "result": 10.2, "unit": "ng/mL"},
      {"measurement": "Plasma concentration", "setting": "rats, 24 h, No. 2", "result": 52.2, "unit": "ng/mL"}
    ]}
  ]
}
